# Legend:
# [1] = molecular target: 5-hydroxytryptamine receptor 1B (Rattus norvegicus, UniProt P28564)
# [2] = molecular target: Beta-2 adrenergic receptor (Rattus norvegicus, UniProt P10608)
# [3] = molecular target: Beta-1 adrenergic receptor (Rattus norvegicus, UniProt P18090)
# Sequence of Beta-1 adrenergic receptor (P18090 whole entry): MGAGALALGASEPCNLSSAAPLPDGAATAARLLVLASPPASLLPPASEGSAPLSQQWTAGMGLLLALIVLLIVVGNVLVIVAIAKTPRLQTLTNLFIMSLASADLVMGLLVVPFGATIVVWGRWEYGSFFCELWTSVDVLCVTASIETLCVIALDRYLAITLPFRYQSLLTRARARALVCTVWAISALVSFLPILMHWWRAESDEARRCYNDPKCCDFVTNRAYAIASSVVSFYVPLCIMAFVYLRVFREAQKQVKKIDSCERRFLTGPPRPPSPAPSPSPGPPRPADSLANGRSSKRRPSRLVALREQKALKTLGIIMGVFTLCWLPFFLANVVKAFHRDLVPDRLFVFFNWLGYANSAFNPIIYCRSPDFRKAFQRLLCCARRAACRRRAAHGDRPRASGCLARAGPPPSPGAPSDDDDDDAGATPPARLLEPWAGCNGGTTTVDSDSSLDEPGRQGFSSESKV
# Sequence of Beta-2 adrenergic receptor (P10608 whole entry): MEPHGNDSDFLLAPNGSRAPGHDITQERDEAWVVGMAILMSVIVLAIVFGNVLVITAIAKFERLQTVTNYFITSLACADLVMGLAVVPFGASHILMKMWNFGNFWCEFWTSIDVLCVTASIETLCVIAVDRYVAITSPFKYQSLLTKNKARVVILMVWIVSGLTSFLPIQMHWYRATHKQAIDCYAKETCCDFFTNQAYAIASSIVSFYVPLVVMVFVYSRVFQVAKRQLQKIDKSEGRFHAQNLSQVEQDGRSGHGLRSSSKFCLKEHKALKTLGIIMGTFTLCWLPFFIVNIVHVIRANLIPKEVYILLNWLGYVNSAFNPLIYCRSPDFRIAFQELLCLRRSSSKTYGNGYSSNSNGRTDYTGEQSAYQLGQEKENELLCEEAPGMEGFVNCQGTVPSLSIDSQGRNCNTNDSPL
# Sequence of 5-hydroxytryptamine receptor 1B (P28564 whole entry): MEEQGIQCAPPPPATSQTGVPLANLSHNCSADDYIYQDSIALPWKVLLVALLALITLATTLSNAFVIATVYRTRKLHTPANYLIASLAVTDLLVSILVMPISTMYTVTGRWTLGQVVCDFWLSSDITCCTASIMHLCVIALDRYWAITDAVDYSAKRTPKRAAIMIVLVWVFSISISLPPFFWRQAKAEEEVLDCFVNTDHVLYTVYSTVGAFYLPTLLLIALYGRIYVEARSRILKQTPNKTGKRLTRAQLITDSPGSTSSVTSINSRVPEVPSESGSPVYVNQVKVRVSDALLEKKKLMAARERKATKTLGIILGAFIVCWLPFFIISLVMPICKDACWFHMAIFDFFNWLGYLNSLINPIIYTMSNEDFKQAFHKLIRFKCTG
Structure (SMILES),Ki [1] [nM],Ki [2] [nM],Ki [3] [nM]
COc1ccc(OC)c([C@@H](O)[C@H](C)NC(C)(C)C)c1 [CAS_1937-89-9],> 10000,468,3720
COCCc1ccc(OCC(O)CNC(C)C)cc1 (stereo not drawn) [Betalok],> 10000,,
COCCc1ccc(OC[C@@H](O)CNC(C)C)cc1 [l-Metoprolol],> 10000,,
"C=CCc1ccccc1OC[C@@H](O)CNC(C)C [ALPRENOLOL,(-)]",70.8,,
COc1ccccc1OCCNCC(O)c1ccc(C)c(S(N)(=O)=O)c1 (stereo not drawn) [CAS_93633-92-2],1290,13.2,4.37
CC(C)NCC(O)COc1cccc2[nH]ccc12 (stereo not drawn) [LB-46],,,0.66
"CC(=O)Nc1ccc(OCC(O)CNC(C)C)cc1 (stereo not drawn) [Practolol,(-)]",> 10000,,245

# Continued, values first:
Ki [1] [nM],Ki [2] [nM],Ki [3] [nM],Structure (SMILES)
> 10000,,,CC(C)NC[C@H](O)COc1ccc(CCOCC2CC2)cc1 [[(2S)-3-{4-[2-(cyclopropylmethoxy)ethyl]phenoxy}-2-hydroxypropyl](propan-2-yl)amine]
3890,,195,"Cc1ccc(OC[C@@H](O)[C@H](C)NC(C)C)c2c1CCC2 [ICI 118,551]"
56.2,2.45,2.82,CC(C)CNCC(O)COc1cccc2ccccc12 (stereo not drawn)
10.7,0.55,0.18,CC(C)(C)NCC(O)CSc1nc(-c2ccc(C(N)=O)s2)cs1 (stereo not drawn) [CAS_52560-77-7]
2000,,12,CC(CCc1ccccc1)NCC(O)c1ccc(O)c(C(N)=O)c1 (stereo not drawn) [2-hydroxy-5-{1-hydroxy-2-[(4-phenylbutan-2-yl)amino]ethyl}benzamide]
> 10000,,,COCCc1ccc(OC[C@H](O)CNC(C)C)cc1 [d-Metoprolol]
174,9.77,7.76,C=CCOc1ccccc1OCC(O)CNC(C)C (stereo not drawn)
> 10000,,,"CC(C)NCC(O)c1ccc(NS(C)(=O)=O)cc1 (racemic) [Sotalol,(-)]"

# Reference: BindingDB's records for doi:10.1254/jjp.52.195 (Niigata College of Pharmacy, 1990)
